Columns and labels:
Type in all cases: cell-based
bovine α1A receptor = molecular target: T1, bovine α1A receptor (Bos taurus, UniProt P18130); assay: FLIPR Ca+2 influx assay, α1A; conditions: relative efficacy compared to standard full agonist norepinephrine; HEK 293, bovine α1A
T1 construct: expressed in transfected cells; host or cells: HEK 293
T1 sequence (P18130 1-466): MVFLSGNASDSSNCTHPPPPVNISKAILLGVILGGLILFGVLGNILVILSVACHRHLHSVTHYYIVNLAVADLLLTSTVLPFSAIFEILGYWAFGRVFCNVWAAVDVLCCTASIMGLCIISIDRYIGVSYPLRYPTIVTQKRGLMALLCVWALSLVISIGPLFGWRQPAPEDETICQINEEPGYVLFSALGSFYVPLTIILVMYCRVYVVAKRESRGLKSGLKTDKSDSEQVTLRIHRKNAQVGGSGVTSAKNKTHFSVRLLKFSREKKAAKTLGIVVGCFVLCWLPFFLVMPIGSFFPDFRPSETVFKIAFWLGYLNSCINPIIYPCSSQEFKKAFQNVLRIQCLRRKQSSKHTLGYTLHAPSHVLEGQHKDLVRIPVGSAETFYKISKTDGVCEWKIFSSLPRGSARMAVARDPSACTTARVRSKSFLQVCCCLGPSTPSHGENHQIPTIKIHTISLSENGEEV
Protocol: (§1) The compounds disclosed herein are agonists of alpha 2B/2C adrenergic receptors. […] This assay is adequate for monitoring the intracellular Ca^2+ mobilization from fluorescent reading to evaluate receptor agonists.
(§2) FLIPR Ca+2 Influx Assay: HEK 293 cells stably expressing the bovine α1A receptor, the rat α1B receptor, the human α2A receptor and the chimeric G protein Gqi5, the human α2C receptor and the chimeric G protein Gqi5 and the mouse α2B receptor and the Gα16 protein were plated in poly-D-lysine coated 384 well plates at 15,000-25,000 cells per well and grown overnight in DMEM supplemented with 10% fetal bovine serum. For FLIPR (fluorometric image plate reader) evaluation, cells were washed 2-4 times with HBSS/HEPES Buffer (1× Hanks Buffered Salt Solution, 20 mM HEPES<pH 7.4) prior to the addition of Fluo-4-AM (4 uM Fluo-4-AM, 0.04% pluronic acid in HBSS/HEPES Buffer), a calcium-sensitive dye. Cells were loaded with Dye for 40 minutes at 30° C., then washed 4-8 times with HBSS/HEPES Buffer to remove excess dye. Cells were preincubated at 37° C. for 3 minutes prior to placement into the FLIPR instrument. The reaction was carried out at 37° C. and was initiated by the addition of the appropriate dilutions of compounds. The transient calcium was captured and the peak height of the calcium curve determined and utilized for calculation of EC50 and efficacy using ActivityBase. Data is stored in the ActivityBase database under the unique identifier “Test Occasion”, which reflects the results of an assay run on a particular date and the individual responsible for the assay. Norepinephrine was the standard full agonist for evaluating alpha1 and alpha2 receptor activity.

human α2C receptor = molecular target: T2, human α2C receptor (Homo sapiens, UniProt P18825); assay: FLIPR Ca+2 influx assay, α2C
T2 construct: expressed in transfected cells; host or cells: HEK 293
T2 sequence (P18825 1-462): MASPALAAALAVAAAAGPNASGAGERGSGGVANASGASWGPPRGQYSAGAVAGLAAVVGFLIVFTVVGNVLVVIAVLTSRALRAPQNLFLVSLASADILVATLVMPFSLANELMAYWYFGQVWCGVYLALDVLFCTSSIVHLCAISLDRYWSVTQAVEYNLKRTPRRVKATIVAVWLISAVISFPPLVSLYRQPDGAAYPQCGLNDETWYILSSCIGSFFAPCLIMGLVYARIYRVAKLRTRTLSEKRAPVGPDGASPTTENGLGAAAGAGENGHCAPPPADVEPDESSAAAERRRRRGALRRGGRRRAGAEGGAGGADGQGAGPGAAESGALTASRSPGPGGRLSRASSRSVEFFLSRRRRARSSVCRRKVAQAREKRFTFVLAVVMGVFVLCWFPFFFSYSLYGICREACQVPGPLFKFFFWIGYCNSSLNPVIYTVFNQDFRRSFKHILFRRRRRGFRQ
Protocol: as §1, §2

mouse α2B receptor = molecular target: T3, mouse α2B receptor (Mus musculus, UniProt P30545); assay: FLIPR Ca+2 influx assay, α2B
T3 construct: expressed in transfected cells; host or cells: HEK 293
T3 sequence (P30545 1-453): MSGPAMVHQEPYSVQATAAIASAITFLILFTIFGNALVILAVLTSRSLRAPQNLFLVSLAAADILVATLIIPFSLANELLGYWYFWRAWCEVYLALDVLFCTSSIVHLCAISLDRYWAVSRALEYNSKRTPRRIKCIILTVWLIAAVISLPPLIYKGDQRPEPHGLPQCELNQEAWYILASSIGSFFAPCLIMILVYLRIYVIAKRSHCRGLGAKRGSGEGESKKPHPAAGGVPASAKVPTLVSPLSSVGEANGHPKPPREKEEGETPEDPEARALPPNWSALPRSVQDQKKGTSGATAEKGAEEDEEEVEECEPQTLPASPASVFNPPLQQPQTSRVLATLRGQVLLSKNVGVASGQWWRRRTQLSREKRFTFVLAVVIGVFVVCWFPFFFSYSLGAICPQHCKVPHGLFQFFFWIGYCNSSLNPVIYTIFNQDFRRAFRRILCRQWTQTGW
Protocol: as §1, §2

rat α1B receptor = molecular target: T4, rat α1B receptor (Rattus norvegicus, UniProt P15823); assay: FLIPR Ca+2 influx assay, α1B
T4 construct: expressed in transfected cells; host or cells: HEK 293
T4 sequence (P15823 1-515): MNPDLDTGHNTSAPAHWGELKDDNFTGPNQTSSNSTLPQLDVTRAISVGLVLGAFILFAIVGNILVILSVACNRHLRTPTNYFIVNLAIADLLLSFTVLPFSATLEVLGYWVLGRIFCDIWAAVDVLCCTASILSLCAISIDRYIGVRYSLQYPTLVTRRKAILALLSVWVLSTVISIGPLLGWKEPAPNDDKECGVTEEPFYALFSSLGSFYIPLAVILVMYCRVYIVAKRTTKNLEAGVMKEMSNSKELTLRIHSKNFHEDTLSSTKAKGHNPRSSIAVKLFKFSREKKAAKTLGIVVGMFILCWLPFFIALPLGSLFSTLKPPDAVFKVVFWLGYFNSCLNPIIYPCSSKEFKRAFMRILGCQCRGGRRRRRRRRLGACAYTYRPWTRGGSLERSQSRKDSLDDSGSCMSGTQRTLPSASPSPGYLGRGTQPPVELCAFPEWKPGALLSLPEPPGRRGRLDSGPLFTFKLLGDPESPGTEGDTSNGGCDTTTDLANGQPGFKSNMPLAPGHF
Protocol: as §1, §2

human α2A receptor = molecular target: T5, human α2A receptor (Homo sapiens, UniProt P08913); assay: FLIPR Ca+2 influx assay, α2A
T5 construct: expressed in transfected cells; host or cells: HEK 293
T5 sequence (P08913 1-465): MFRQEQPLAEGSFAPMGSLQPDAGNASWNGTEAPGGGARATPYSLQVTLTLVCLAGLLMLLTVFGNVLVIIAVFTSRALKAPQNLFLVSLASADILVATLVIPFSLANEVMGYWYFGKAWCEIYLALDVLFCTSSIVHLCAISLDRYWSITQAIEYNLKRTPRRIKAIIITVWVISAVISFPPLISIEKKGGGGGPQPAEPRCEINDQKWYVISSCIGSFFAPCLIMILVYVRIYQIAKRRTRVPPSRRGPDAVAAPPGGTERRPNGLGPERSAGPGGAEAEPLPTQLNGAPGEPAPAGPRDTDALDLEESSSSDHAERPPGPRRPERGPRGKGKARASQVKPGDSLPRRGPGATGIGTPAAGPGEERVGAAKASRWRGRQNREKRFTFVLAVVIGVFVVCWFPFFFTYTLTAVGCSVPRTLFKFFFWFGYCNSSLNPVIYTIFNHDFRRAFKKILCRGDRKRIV
Protocol: as §1, §2

For `CCCN(Cc1ccccn1)C1CCc2cccc(O)c2C1` (stereo not drawn) [drawing 21], the “Relative efficacy FLIPR α1A” value (bovine α1A receptor) was “ND (0.05)”, the EC50 (human α2C receptor; HEK 293 cells stably expressing human α2C receptor and chimeric G protein Gqi5) was greater than 10 µM and the “Relative efficacy FLIPR α2C” value (human α2C receptor; relative efficacy compared to standard full agonist norepinephrine, HEK 293, human α2C/Gqi5) was 0. For the same compound, the EC50 (mouse α2B receptor; HEK 293 cells stably expressing mouse α2B receptor and Gα16 protein) was 0.033 µM, the “Relative efficacy FLIPR α2B” value (mouse α2B receptor; relative efficacy compared to standard full agonist norepinephrine, HEK 293, mouse α2B/Gα16) was 0.95 and the EC50 (rat α1B receptor; HEK 293 cells stably expressing rat α1B receptor) was greater than 10 µM. The “Relative efficacy FLIPR α1B” value (rat α1B receptor; relative efficacy compared to standard full agonist norepinephrine, HEK 293, rat α1B) was 0, the EC50 (human α2A receptor; HEK 293 cells stably expressing human α2A receptor and chimeric G protein Gqi5) was greater than 10 µM and the “Relative efficacy FLIPR α2A” value (human α2A receptor; relative efficacy compared to standard full agonist norepinephrine, HEK 293, human α2A/Gqi5) was 0.

— patent US7829587B2, “Substituted 2-aminotetralin derivatives as selective alpha 2B agonist” (Allergan, Inc., priority 2008, dated 2010)
